Assay results as given in patent publication US20150344404A1, “PDK4 INHIBITOR AND USE THEREOF” (THE KITASATO INSTITUE, priority 2012, published 2015).

target: recombinant human PDK4 (Homo sapiens, UniProt Q16654); assay: PDK4 enzyme inhibitory activity by off-chip mobility shift assay; type: biochemical; conditions: Table 34; recombinant human PDK4, room temperature, 5 hours; read-out: IC50, PDK inhibitory activity of representative compounds
Description: Measurement of PDK4/PDK2 inhibitory activity by off-chip mobility shift assay: The compound solution (5 μL), 4×substrate/ATP/metal mixture (5 μL) and 2×recombinant human PDK4 (5 μL) were added to 384 well micro plate. After reacting at room temperature for 5 hours, the reaction stop solution (60 μL) was added to above solution. The substrate peptide (S) and phosphorylated peptide (P) was quantified using LabChip3000, then the inhibitory activity was calculated from the ratio (P/P+S).

recombinant human PDK4, sequence (Q16654 whole entry): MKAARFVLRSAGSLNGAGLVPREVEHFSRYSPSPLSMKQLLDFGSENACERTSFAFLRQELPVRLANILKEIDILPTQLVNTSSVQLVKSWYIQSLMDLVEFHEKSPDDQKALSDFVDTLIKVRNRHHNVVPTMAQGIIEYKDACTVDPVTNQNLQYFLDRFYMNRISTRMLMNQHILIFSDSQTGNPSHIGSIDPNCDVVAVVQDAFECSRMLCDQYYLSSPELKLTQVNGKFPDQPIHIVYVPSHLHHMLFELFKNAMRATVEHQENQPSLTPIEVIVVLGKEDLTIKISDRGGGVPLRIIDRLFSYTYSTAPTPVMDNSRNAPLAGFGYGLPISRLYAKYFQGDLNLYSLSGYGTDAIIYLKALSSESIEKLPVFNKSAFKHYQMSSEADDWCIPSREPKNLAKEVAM

| Compound | IC50 [µM] |
| --- | --- |
| O=C1CCC(=O)c2c(O)ccc(O)c21 [KIS58] | 12 |
| CC1=CC(=O)c2cc(C(=O)O)ccc2C1=O [KIS93, 6-carboxyl-2-methyl-1,4-naphthoquinone] | 36 |
| COC(=O)c1ccc2c(c1)C(=O)C=C(C)C2=O [KIS95, 6-carbomethoxy-2-methyl-1,4-naphthoquinone] | 26 |
| CC1=CC(=O)c2c(O)cc(C(=O)O)cc2C1=O [KIS90, 7-carboxy-5-hydroxy-2-methyl-1,4-naphthoquinone] | 20 |
| CC1=CC(=O)c2cc(C=O)ccc2C1=O [KIS97, 6-formyl-2-methyl-1,4-naphthoquinone] | 18 |
| CC1=CC(=O)c2cc(C(C)O)ccc2C1=O (racemic) [KIS92, (±)-2-methyl-6-(1-hydroxyethyl)-1,4-naphthoquinone] | 46 |
| CC1=CC(=O)c2ccccc2C1=O [KIS12] | 38 |
| Cc1cc(N)c2ccccc2c1O [KIS61] | 27 |
| COC1=CC(=O)c2ccccc2C1=O [KIS69] | 26 |
| CC1=CC(=O)c2ccc(C(=O)O)cc2C1=O [KIS78, 7-carboxyl-2-methyl-1,4-naphthoquinone] | 46 |
| CC1=CC(=O)c2cc(CO)ccc2C1=O [KIS96, 6-hydroxymethyl-2-methyl-1,4-naphthoquinone] | 30 |
| COC(=O)c1cc(O)c2c(c1)C(=O)C(C)=CC2=O [KIS79, 7-carbomethoxy-5-hydroxy-2-methyl-1,4-naphthoquinone] | 9 |
| O=C(O)c1ccc2c(c1)C(=O)C=CC2=O [KIS19] | 19 |

Further lines, results first:

| IC50 [µM] | Compound |
| --- | --- |
| 23 | CC1=CC(=O)c2cc(C(=O)NCC(=O)OC(C)(C)C)ccc2C1=O [KIS98, Glycine, N-[(1,4-dihydro-1,4-dioxo-2-methyl-6-naphthylenyl)carbonyl], tert-butyl ester] |
| 21 | CC1=CC(=O)c2cc(C(=O)NCC(=O)O)ccc2C1=O [KIS99, N-[(1,4-dihydro-1,4-dioxo-2-methyl-6-naphthylenyl)carbonyl]glycine] |

same assay, conditions: Table 35; recombinant human PDK4, room temperature, 5 hours; read-out: IC50

| IC50 [µM] | Compound |
| --- | --- |
| 36 | C#CCNC(=O)c1ccc2c(c1)C(=O)C=C(C)C2=O [KIS153] |
| 22 | CC1=CC(=O)c2ccc(C=O)cc2C1=O [KIS126] |
| 16 | CC1=CC(=O)c2ccncc2C1=O [KIS118] |
| 26 | CCOC(=O)c1ccc2c(c1)C(=O)C=C(C)C2=O [KIS127] |
| 27 | CC1=CC(=O)c2ccc(CO)cc2C1=O [KIS128] |
| 20 | CC1=CC(=O)c2cc(C(=O)N[C@@H](CO)C(=O)O)ccc2C1=O [KIS131, N-[(1,4-dihydro-1,4-dioxo-2-methyl-6-naphthylenyl)carbonyl]serine] |
| 19 | CC(=O)OCc1ccc2c(c1)C(=O)C=C(C)C2=O [KIS148] |
| 26 | CC1=C(Br)C(=O)c2ccccc2C1=O [KIS147] |
| 17 | CC1=CC(=O)c2cc(C=CC(=O)NCC(=O)O)ccc2C1=O [KIS151] |

test system: not given; assay: not given; conditions: background art; cited from earlier work

| Compound | side effect |
| --- | --- |
| O=C(O)C(Cl)Cl [Dichloro acetic acid] | neurotoxicity |

test system: PDK isozymes 1, 2 and 3; assay: not given; conditions: background art; cited from earlier work

| Compound | IC50 against PDK isozymes 1, 2 and 3 |
| --- | --- |
| CN(C)C(=O)c1ccc(S(=O)(=O)c2ccc(NC(=O)[C@@](C)(O)C(F)(F)F)c(Cl)c2)cc1 [AZD7545] | sub μM order |
